Legend:
Conditions in all cases: exposure time: 72 h
E34 [1] = patient-derived glioblastoma stem cells of proneural subtype; experiment: phenotypic distance (Euclidean, principal components) from DMSO controls (arbitrary units); higher = stronger morphological change
E28 [2] = patient-derived glioblastoma stem cells of classical subtype; experiment: as above
E31 [3] = patient-derived glioblastoma stem cells of proneural subtype; experiment: as above
E21 [4] = patient-derived glioblastoma stem cells of mesenchymal subtype; experiment: as above
E57 [5] = patient-derived glioblastoma stem cells of mesenchymal subtype; experiment: as above
E13 [6] = patient-derived glioblastoma stem cells of classical subtype; experiment: as above
FT3469 [7] = normal neural stem cell line; experiment: as above
E34 [8] = experiment: surviving fraction (nuclei count normalised to DMSO); higher = more cells surviving (less toxic)
E28 [9] = experiment: as above
E31 [10] = experiment: as above
E21 [11] = experiment: as above
E57 [12] = experiment: as above
E13 [13] = experiment: as above
FT3469 [14] = experiment: as above
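For phenotypic distance (Euclidean, principal components) from DMSO controls in this document: cell Painting imaging in 384-well plates, CellProfiler features reduced to at least 20 principal components, Euclidean distance versus same-plate DMSO vehicle wells (0.1% v/v), median over six images per well.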
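For surviving fraction (nuclei count normalised to DMSO) in this document: nuclei counted by high-content imaging of Hoechst-stained cells in laminin-coated 384-well plates, relative to 0.1% DMSO vehicle wells, with staurosporine as cell-death control.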

Cc1ccc(/C=N/NC(=O)c2n[nH]c3c2CCCC3)cc1 [Suprafenacine]
Conditions	phenotypic distance	surviving fraction
E13 [6], 4.1 nM	0.782	–
E13 [6], 12.3 nM	0.752	–
E13 [6], 37 nM	1.13	–
E13 [6], 111.1 nM	3.22	–
E13 [6], 333.3 nM	7.1	–
E13 [6], 1000 nM	7.86	–
E13 [6], 3000 nM	5.88	–
E13 [13], 4.1 nM	–	0.909
E13 [13], 12.3 nM	–	0.853
E13 [13], 37 nM	–	0.86
E13 [13], 111.1 nM	–	0.536
E13 [13], 333.3 nM	–	0.144
E13 [13], 1000 nM	–	0.235
E13 [13], 3000 nM	–	0.1
E21 [4], 4.1 nM	0.928	–
E21 [4], 12.3 nM	0.73	–
E21 [4], 37 nM	1.18	–
E21 [4], 111.1 nM	4.45	–
E21 [4], 333.3 nM	9.28	–
E21 [4], 1000 nM	6.44	–
E21 [4], 3000 nM	9.19	–
E21 [11], 4.1 nM	–	0.963
E21 [11], 12.3 nM	–	0.931
E21 [11], 37 nM	–	0.982
E21 [11], 111.1 nM	–	0.453
E21 [11], 333.3 nM	–	0.0832
E21 [11], 1000 nM	–	0.113
E21 [11], 3000 nM	–	0.0664
E28 [2], 4.1 nM	0.615	–
E28 [2], 12.3 nM	0.72	–
E28 [2], 37 nM	0.724	–
E28 [2], 111.1 nM	1.34	–
E28 [2], 333.3 nM	3.15	–
E28 [2], 1000 nM	4.1	–
E28 [2], 3000 nM	5.78	–
E28 [9], 4.1 nM	–	0.954
E28 [9], 12.3 nM	–	0.896
E28 [9], 37 nM	–	0.922
E28 [9], 111.1 nM	–	0.742
E28 [9], 333.3 nM	–	0.325
E28 [9], 1000 nM	–	0.31
E28 [9], 3000 nM	–	0.217
E31 [3], 4.1 nM	0.29	–
E31 [3], 12.3 nM	1.07	–
E31 [3], 37 nM	1.19	–
E31 [3], 111.1 nM	2.14	–
E31 [3], 333.3 nM	6.25	–
E31 [3], 1000 nM	9.97	–
E31 [3], 3000 nM	12.3	–
E31 [10], 4.1 nM	–	0.95
E31 [10], 12.3 nM	–	0.845
E31 [10], 37 nM	–	0.709
E31 [10], 111.1 nM	–	0.454
E31 [10], 333.3 nM	–	0.0666
E31 [10], 1000 nM	–	0.0444
E31 [10], 3000 nM	–	0.0399
E34 [1], 4.1 nM	0.442	–
E34 [1], 12.3 nM	1.02	–
E34 [1], 37 nM	0.706	–
E34 [1], 111.1 nM	1.69	–
E34 [1], 333.3 nM	5.34	–
E34 [1], 1000 nM	6.45	–
E34 [1], 3000 nM	8.8	–
E34 [8], 4.1 nM	–	1.01
E34 [8], 12.3 nM	–	0.905
E34 [8], 37 nM	–	0.938
E34 [8], 111.1 nM	–	0.69
E34 [8], 333.3 nM	–	0.409
E34 [8], 1000 nM	–	0.375
E34 [8], 3000 nM	–	0.237
E57 [5], 4.1 nM	1.71	–
E57 [5], 12.3 nM	0.929	–
E57 [5], 37 nM	0.819	–
E57 [5], 111.1 nM	3.04	–
E57 [5], 333.3 nM	5.2	–
E57 [5], 1000 nM	5.41	–
E57 [5], 3000 nM	6.18	–
E57 [12], 4.1 nM	–	0.914
E57 [12], 12.3 nM	–	0.922
E57 [12], 37 nM	–	0.883
E57 [12], 111.1 nM	–	0.685
E57 [12], 333.3 nM	–	0.0911
E57 [12], 1000 nM	–	0.0842
E57 [12], 3000 nM	–	0.0511
FT3469 [7], 4.1 nM	1.07	–
FT3469 [7], 12.3 nM	1.84	–
FT3469 [7], 37 nM	1.31	–
FT3469 [7], 111.1 nM	2.86	–
FT3469 [7], 333.3 nM	3.59	–
FT3469 [7], 1000 nM	3.7	–
FT3469 [7], 3000 nM	6.28	–
FT3469 [14], 4.1 nM	–	0.873
FT3469 [14], 12.3 nM	–	0.804
FT3469 [14], 37 nM	–	0.848
FT3469 [14], 111.1 nM	–	0.492
FT3469 [14], 333.3 nM	–	0.527
FT3469 [14], 1000 nM	–	0.471
FT3469 [14], 3000 nM	–	0.295

Nc1nc(Cl)nc2c1ncn2[C@@H]1O[C@H](CO)[C@@H](O)[C@@H]1F [Clofarabine]
Conditions	phenotypic distance	surviving fraction
E13 [6], 4.1 nM	0.623	–
E13 [6], 12.3 nM	2.78	–
E13 [6], 37 nM	0.684	–
E13 [6], 111.1 nM	0.632	–
E13 [6], 333.3 nM	0.616	–
E13 [6], 1000 nM	1.66	–
E13 [6], 3000 nM	5.91	–
E13 [13], 4.1 nM	–	0.852
E13 [13], 12.3 nM	–	0.979
E13 [13], 37 nM	–	0.86
E13 [13], 111.1 nM	–	0.941
E13 [13], 333.3 nM	–	0.913
E13 [13], 1000 nM	–	0.789
E13 [13], 3000 nM	–	0.318
E21 [4], 4.1 nM	0.844	–
E21 [4], 12.3 nM	1.11	–
E21 [4], 37 nM	1.36	–
E21 [4], 111.1 nM	2.15	–
E21 [4], 333.3 nM	4.37	–
E21 [4], 1000 nM	4.92	–
E21 [4], 3000 nM	4.35	–
E21 [11], 4.1 nM	–	0.962
E21 [11], 12.3 nM	–	0.885
E21 [11], 37 nM	–	0.825
E21 [11], 111.1 nM	–	0.771
E21 [11], 333.3 nM	–	0.343
E21 [11], 1000 nM	–	0.118
E21 [11], 3000 nM	–	0.116
E28 [2], 4.1 nM	1.24	–
E28 [2], 12.3 nM	1.42	–
E28 [2], 37 nM	1.73	–
E28 [2], 111.1 nM	2.31	–
E28 [2], 333.3 nM	3.06	–
E28 [2], 1000 nM	3.17	–
E28 [2], 3000 nM	3.21	–
E28 [9], 4.1 nM	–	0.864
E28 [9], 12.3 nM	–	0.907
E28 [9], 37 nM	–	0.515
E28 [9], 111.1 nM	–	0.559
E28 [9], 333.3 nM	–	0.341
E28 [9], 1000 nM	–	0.366
E28 [9], 3000 nM	–	0.3
E31 [3], 4.1 nM	1.08	–
E31 [3], 12.3 nM	1.33	–
E31 [3], 37 nM	1.67	–
E31 [3], 111.1 nM	2.85	–
E31 [3], 333.3 nM	3.28	–
E31 [3], 1000 nM	2.52	–
E31 [3], 3000 nM	2.66	–
E31 [10], 4.1 nM	–	0.754
E31 [10], 12.3 nM	–	0.892
E31 [10], 37 nM	–	0.64
E31 [10], 111.1 nM	–	0.205
E31 [10], 333.3 nM	–	0.142
E31 [10], 1000 nM	–	0.236
E31 [10], 3000 nM	–	0.206
E34 [1], 4.1 nM	0.795	–
E34 [1], 12.3 nM	0.848	–
E34 [1], 37 nM	0.943	–
E34 [1], 111.1 nM	2.17	–
E34 [1], 333.3 nM	3.94	–
E34 [1], 1000 nM	3.25	–
E34 [1], 3000 nM	3.42	–
E34 [8], 4.1 nM	–	0.858
E34 [8], 12.3 nM	–	1.04
E34 [8], 37 nM	–	0.894
E34 [8], 111.1 nM	–	0.777
E34 [8], 333.3 nM	–	0.558
E34 [8], 1000 nM	–	0.495
E34 [8], 3000 nM	–	0.541
E57 [5], 4.1 nM	0.635	–
E57 [5], 12.3 nM	1.15	–
E57 [5], 37 nM	2.09	–
E57 [5], 111.1 nM	5.48	–
E57 [5], 333.3 nM	5.92	–
E57 [5], 1000 nM	6.82	–
E57 [5], 3000 nM	6.53	–
E57 [12], 4.1 nM	–	0.939
E57 [12], 12.3 nM	–	0.847
E57 [12], 37 nM	–	0.741
E57 [12], 111.1 nM	–	0.402
E57 [12], 333.3 nM	–	0.186
E57 [12], 1000 nM	–	0.168
E57 [12], 3000 nM	–	0.165
FT3469 [7], 4.1 nM	0.724	–
FT3469 [7], 12.3 nM	0.807	–
FT3469 [7], 37 nM	0.917	–
FT3469 [7], 111.1 nM	1.95	–
FT3469 [7], 333.3 nM	2.04	–
FT3469 [7], 1000 nM	1.6	–
FT3469 [7], 3000 nM	2.19	–
FT3469 [14], 4.1 nM	–	0.827
FT3469 [14], 12.3 nM	–	0.915
FT3469 [14], 37 nM	–	0.875
FT3469 [14], 111.1 nM	–	0.79
FT3469 [14], 333.3 nM	–	0.702
FT3469 [14], 1000 nM	–	0.497
FT3469 [14], 3000 nM	–	0.428

Reference: the supplement of paper PMC13207355
